≈ marks a conversion by molar mass, not a printed value. Like-named read-outs stand apart in the source and are kept apart here.
Key:
[1] = system: Proteus vulgaris XI9H ATCC 881; experiment: MIC, two-fold dilution microtiter, P. vulgaris; type: cell-based; conditions: Proteus vulgaris, ATCC881; P. vulgaris XI9H ATCC 881; Iso-Sensitest broth; 18-24 h, 37° C; read-out: MIC
[2] = system: Streptococcus pyogenes C203; experiment: MIC, two-fold dilution microtiter, S. pyogenes C203; type: cell-based; conditions: Streptococcus pyogenes, Todd-Hewitt broth, 18-24 h, 37° C, read-out: MIC
Protocol: (§1) The minimum inhibitory concentration (MIC) of representative compounds of the invention was determined using two-fold dilution method in microtiter system. The media used were: Todd-Hewitt broth (Difco) for steptococci; Iso-Sensitest broth (Oxoid) for staphylococci and gram-negative bacteria. The final inoculum was about 10^4 cfμ/ml. […] For M. tuberculosis H37 RV the inoculum consisted of 0.5-1% of a 7-9 day culture in Dubos medium. The tests were carried out in Kirschner medium supplemented with 10% horse serum. Observations were made after 7-days incubation at 37° C.

[3] = system: S. aureus TOUR L 165; experiment: MIC, two-fold dilution microtiter, S. aureus TOUR L 165; type: cell-based, Staphylococcus aureus
[4] = system: Escherichia coli SKF 12140; experiment: MIC, two-fold dilution microtiter, E. coli SKF 12140; type: cell-based; conditions: Escherichia coli, SKF12140, Iso-Sensitest broth, 18-24 h, 37° C, read-out: MIC
[5] = system: S. faecalis ATCC 7080; experiment: MIC, two-fold dilution microtiter, S. faecalis ATCC 7080; type: cell-based; conditions: Enterococcus faecalis, ATCC7080, 18-24 h, 37° C, read-out: MIC
[6] = system: Klebsiella pneumoniae ISM; experiment: MIC, two-fold dilution microtiter, K. pneumoniae ISM; type: cell-based; conditions: Klebsiella pneumoniae; K. pneumoniae ISM; Iso-Sensitest broth; 18-24 h, 37° C; read-out: MIC
[7] = system: Staphylococcus aureus ATCC 6538; experiment: MIC, two-fold dilution microtiter, S. aureus ATCC 6538; type: cell-based; conditions: Staphylococcus aureus, ATCC6538
[8] = system: Pseudomonas aeruginosa ATCC 10145; experiment: MIC, two-fold dilution microtiter, P. aeruginosa ATCC 10145; type: cell-based; conditions: Pseudomonas aeruginosa, ATCC10145; P. aeruginosa ATCC 10145; Iso-Sensitest broth; 18-24 h, 37° C; read-out: MIC
[9] = system: S. aureus tour L 165; experiment: experimental septicemia in mice (S. aureus); type: in vivo; conditions: Staphylococcus aureus, once daily for three days, survival on 10th day
Protocol: The antimicrobial activity of the compounds of the invention is also confirmed in "in vivo" tests. The animals (groups of five mice) were infected by intraperitoneal injection of 16-hour broth culture of S. aureus tour L 165. Inocula were adjusted so that untreated animals died of septicemia within 48 hours. Animals were treated once daily for three days starting immediately after infection. On the 10th day the value for the ED50 in mg/kg/day was calculated by the method of […]-KARBER (Finney, D. J., Statistical method in biological assay, page 524. C. Griffin Ltd., London, 1952), on the basis of the percentage of surviving animals at each dose.

[10] = system: S. pneumoniae UC 41; experiment: MIC, two-fold dilution microtiter, S. pneumoniae UC 41; type: cell-based; conditions: Streptococcus pneumoniae, UC41, Todd-Hewitt broth, 18-24 h, 37° C, read-out: MIC
[11] = system: Mycobacterium tuberculosis H37RV ATCC 9360; experiment: MIC, M. tuberculosis H37RV, Kirschner medium; type: cell-based; conditions: Mycobacterium tuberculosis, 168 h, 10% horse serum, 7 days, 37° C, read-out: MIC
Protocol: as §1

[12] = system: S. aureus TOUR L 1282; experiment: MIC, two-fold dilution microtiter, rifampicin resistant S. aureus TOUR L 1282; type: cell-based; conditions: Staphylococcus aureus, TOURL1282, rifampicin resistant strain
[13] = Staphylococcus aureus, TOURL165, S. aureus TOUR L 165, Iso-Sensitest broth, 18-24 h, 37° C, read-out: MIC
[14] = Staphylococcus aureus, TOURL165, S. aureus TOUR L 165, supplemented with 30% bovine serum, read-out: MIC
[15] = S. aureus ATCC 6538, Iso-Sensitest broth, 18-24 h, 37° C, read-out: MIC

Row | Compound | MIC [1] [µg/mL] | MIC [2] [µg/mL] | MIC [3, 13] [µg/mL] | MIC [3, 14] [µg/mL] | MIC [4] [µg/mL] | MIC [5] [µg/mL] | MIC [6] [µg/mL] | MIC [7, 15] [µg/mL] | MIC [8] [µg/mL] | ED50 ([9]; TOURL165, 240 h, sc) [mg/kg] | ED50 ([9]; TOURL165, po, 240 h, os) [mg/kg] | MIC [10] [µg/mL] | MIC [11] [µg/mL] | MIC [12] [µg/mL] | MIC ([3]; S. aureus TOUR L 165, supplemented with 30% bovine serum) [µg/mL] | MIC ([3]; Staphylococcus aureus, TOURL165) [µg/mL] | MIC [7] [µg/mL]
1 | COC1C=COC2(C)Oc3c(C)c(O)c4c(O)c(c5sc(N6CCCCC6)nc5c4c3C2=O)NC(=O)C(C)=CC=CC(C)C(O)C(C)C(O)C(C)C(OC(C)=O)C1C (centres unmarked) [Example 2, 2'-(1"-Piperidinyl) rifamycin P] | 6.25 (≈ 7.6 µM) | 0.05 (≈ 0.0608 µM) | 0.006 (≈ 0.0073 µM) | 0.2 (≈ 0.243 µM) | 12.5 (≈ 15.2 µM) | 1.6 (≈ 1.95 µM) | 25 (≈ 30.4 µM) | 0.003 (≈ 0.00365 µM) | 6.25 (≈ 7.6 µM) | 0.16 | 0.63 | 0.05 (≈ 0.0608 µM) | 0.2 (≈ 0.243 µM) | > 100 |  |  | 
2 | COC1C=COC2(C)Oc3c(C)c(O)c4c(O)c(c5sc(N6CCN(C)CC6)nc5c4c3C2=O)NC(=O)C(C)=CC=CC(C)C(O)C(C)C(O)C(C)C(OC(C)=O)C1C (centres unmarked) [Example 3a, 2'-(4"-Methyl-1"-piperazinyl) rifamycin P] | 8 (≈ 9.56 µM) | 0.032 (≈ 0.0382 µM) | 0.004 (≈ 0.00478 µM) | 0.004 (≈ 0.00478 µM) | 16 (≈ 19.1 µM) | 2 (≈ 2.39 µM) | 32 (≈ 38.2 µM) | 0.001 (≈ 0.00119 µM) | 16 (≈ 19.1 µM) | 0.16 | 0.36 | 0.032 (≈ 0.0382 µM) | 1 (≈ 1.19 µM) | 32 (≈ 38.2 µM) |  |  | 
3 | COC1C=COC2(C)Oc3c(C)c(O)c4c(O)c(c5sc(N6CCN(C)CC6)nc5c4c3C2=O)NC(=O)C(C)=CC=CC(C)C(O)C(C)C(O)C(C)C(O)C1C (centres unmarked) [Example 3b, 25-Desacetyl-2'-(4"-methyl-1-piperazinyl) rifamycin P] | 8 (≈ 10.1 µM) | 0.063 (≈ 0.0792 µM) | 0.008 (≈ 0.0101 µM) | 0.016 (≈ 0.0201 µM) | 8 (≈ 10.1 µM) | 1 (≈ 1.26 µM) | 16 (≈ 20.1 µM) | 0.008 (≈ 0.0101 µM) | 8 (≈ 10.1 µM) | 10 | 13 | 0.063 (≈ 0.0792 µM) | 1 (≈ 1.26 µM) | > 128 |  |  | 
4 | COC1C=COC2(C)Oc3c(C)c(O)c4c(O)c(c5sc(N6CCN(CCO)CC6)nc5c4c3C2=O)NC(=O)C(C)=CC=CC(C)C(O)C(C)C(O)C(C)C(OC(C)=O)C1C (centres unmarked) [Example 3c, 2'-[4"(2'"-hydroxyethyl)-1"-piperazinyl]rifamycin P] | 16 (≈ 18.5 µM) | 0.016 (≈ 0.0185 µM) | 0.016 (≈ 0.0185 µM) | 0.032 (≈ 0.0369 µM) | 8 (≈ 9.23 µM) | 4 (≈ 4.61 µM) | 32 (≈ 36.9 µM) | 0.008 (≈ 0.00923 µM) | 128 (≈ 148 µM) | 3.3 | > 20 | 0.008 (≈ 0.00923 µM) | 4 (≈ 4.61 µM) | 64 (≈ 73.8 µM) |  |  | 
5 | COC1C=COC2(C)Oc3c(C)c(O)c4c(O)c(c5sc(N6CCNCC6)nc5c4c3C2=O)NC(=O)C(C)=CC=CC(C)C(O)C(C)C(O)C(C)C(OC(C)=O)C1C (centres unmarked) [Example 4, 2'-(1"-Piperazinyl) rifamycin P] | 8 (≈ 9.72 µM) | 0.125 (≈ 0.152 µM) |  |  | 8 (≈ 9.72 µM) | 2 (≈ 2.43 µM) | 16 (≈ 19.4 µM) |  | 16 (≈ 19.4 µM) |  |  | 0.064 (≈ 0.0778 µM) |  | > 128 | 0.125 (≈ 0.152 µM) | 0.125 (≈ 0.152 µM) | 0.125 (≈ 0.152 µM)
6 | CCN(CC)c1nc2c(s1)c1c(O)c3c(O)c(C)c4c(c32)C(=O)C(C)(OC=CC(OC)C(C)C(OC(C)=O)C(C)C(O)C(C)C(O)C(C)C=CC=C(C)C(=O)N1)O4 (centres unmarked) [Example 5, 2'-(N,N-diethylamino) rifamycin P] | 32 (≈ 39.5 µM) | 0.064 (≈ 0.079 µM) | 0.064 (≈ 0.079 µM) | 0.5 (≈ 0.617 µM) | 32 (≈ 39.5 µM) | 1 (≈ 1.23 µM) | 64 (≈ 79 µM) | 0.032 (≈ 0.0395 µM) |  | 0.21 | 0.82 | 0.032 (≈ 0.0395 µM) | 0.5 (≈ 0.617 µM) | > 128 |  |  | 
